# Laboratory results reported in ChEMBL document CHEMBL4043218, “Analysis of the binding sites of vitamin D 1α-hydroxylase (CYP27B1) and vitamin D 24-hydroxylase (CYP24A1) for the design of selective CYP24A1 inhibitors: Homology modelling, molecular dynamics simulations and identification of key binding requirements” (Bioorg Med Chem, 2017).
# Assays:
# Homo sapiens = species on record: Homo sapiens; test: Selectivity index, ratio of IC50 for human CYP24A1 to IC50 for human CYP27B1
# [1] = target: T1, 1,25-dihydroxyvitamin D(3) 24-hydroxylase, mitochondrial (Homo sapiens, UniProt Q07973); test: Inhibition of human CYP24A1
# T1 sequence (Q07973 whole entry): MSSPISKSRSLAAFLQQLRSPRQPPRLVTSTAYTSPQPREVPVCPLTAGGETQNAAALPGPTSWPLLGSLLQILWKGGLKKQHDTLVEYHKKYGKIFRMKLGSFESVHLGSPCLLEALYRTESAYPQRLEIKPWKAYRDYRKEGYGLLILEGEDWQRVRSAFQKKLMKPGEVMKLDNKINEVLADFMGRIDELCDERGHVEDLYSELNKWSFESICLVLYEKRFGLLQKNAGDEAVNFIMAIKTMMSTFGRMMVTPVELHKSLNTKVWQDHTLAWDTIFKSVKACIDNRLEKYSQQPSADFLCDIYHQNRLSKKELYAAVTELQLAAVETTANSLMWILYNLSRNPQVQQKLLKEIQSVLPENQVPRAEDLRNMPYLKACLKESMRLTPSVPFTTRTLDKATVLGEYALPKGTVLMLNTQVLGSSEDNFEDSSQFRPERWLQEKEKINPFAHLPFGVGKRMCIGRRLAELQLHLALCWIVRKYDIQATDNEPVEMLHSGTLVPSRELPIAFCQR
# [2] = target: T2, 25-hydroxyvitamin D-1 alpha hydroxylase, mitochondrial (Homo sapiens, UniProt O15528); test: Inhibition of human CYP27B1
# T2 sequence (O15528 whole entry): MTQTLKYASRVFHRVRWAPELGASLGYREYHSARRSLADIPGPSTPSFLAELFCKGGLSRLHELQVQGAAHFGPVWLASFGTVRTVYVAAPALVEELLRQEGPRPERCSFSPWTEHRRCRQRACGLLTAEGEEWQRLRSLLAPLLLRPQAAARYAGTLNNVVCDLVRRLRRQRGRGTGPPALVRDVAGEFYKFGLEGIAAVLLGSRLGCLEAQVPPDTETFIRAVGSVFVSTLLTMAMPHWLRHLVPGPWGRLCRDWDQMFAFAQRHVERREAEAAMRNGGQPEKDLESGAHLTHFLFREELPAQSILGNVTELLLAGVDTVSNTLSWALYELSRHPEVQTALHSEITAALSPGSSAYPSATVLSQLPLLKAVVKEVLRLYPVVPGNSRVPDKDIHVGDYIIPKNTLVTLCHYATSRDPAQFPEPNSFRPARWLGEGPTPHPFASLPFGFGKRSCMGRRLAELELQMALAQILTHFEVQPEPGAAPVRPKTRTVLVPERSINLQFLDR
# [3] = target: T1, 1,25-dihydroxyvitamin D(3) 24-hydroxylase, mitochondrial; test: Inhibition of N-terminal MBP-tagged human CYP24A1 expressed in Escherichia coli assessed as reduction in […] activity incubated for 25 mins using Adx, AdR and 1,25(OH)2D3
# [4] = target: T2, 25-hydroxyvitamin D-1 alpha hydroxylase, mitochondrial; test: Inhibition of human CYP27B1 expressed in Escherichia coli assessed as reduction in […] activity incubated for 25 mins using Adx, AdR and […]
Ratio IC50 (Homo sapiens),IC50 [1],IC50 [2],IC50 [3],IC50 [4],Compound
66,> 10000 nM,60.2 nM,,,CN(C)CCn1nnnc1SCC(O)(Cn1ccnc1)c1ccc(Cl)cc1Cl (configuration not stated)
47,4480 nM,95.2 nM,,,CN(C)c1cccc2c(S(=O)(=O)NC(Cn3ccnc3)c3ccc(Cl)cc3Cl)cccc12 (configuration not stated)
5,,,2500 nM,570 nM,Cc1[nH]nc(O)c1C(c1ccc(OCc2ccncc2)cc1)c1c(O)n[nH]c1C
5,,,2600 nM,410 nM,Cc1[nH]nc(O)c1C(c1cccc(OCc2ccncc2)c1)c1c(O)n[nH]c1C
